Test results reported in patent publication US20250179057A1, “MEK IMMUNE ONCOLOGY INHIBITORS AND THERAPEUTIC USES THEREOF” (Immuneering Corporation, priority 2022, published 2025).
Counter-ions that a name gives are not always drawn.

What was measured:
PAMPA (pH 7.4) = assay type: in vitro ADME; details: PAMPA
Description: Each stock solution was diluted to 50 M in pH 7.4 Prisma HT buffer (pION) and 200 μl was added to each well of the donor plate in triplicate. The polyvinylidene fluoride (PVDF, 0.45 μm) filter membrane on the acceptor plate was coated with 5 μl gastrointestinal tract lipid formulation (GIT-0, pION) and to each well of the acceptor plate, 200 μl of acceptor sink buffer (pION) was added. The acceptor filter plate was then carefully placed on top of the donor plate to form a sandwich. The sandwich was incubated at 25° C. for 4 h without stirring. UV-vis spectra of the solutions in the blank, reference, acceptor and donor plates were measured using a microplate reader (Tecan Infinite 200PRO M Nano Plus). Permeability values were calculated using the PAMPA explorer software v.

[1] = Hepatocyte stability, balb/c mouse; assay type: in vitro ADME; details: 0.5 million cells/ml; for CLint scaled at 2 μM: BALB/c, mouse, hepatocytes; for half-life at 2 μM: balb/c mouse hepatocytes
Description: (§1) In this study, human, cynomolgus monkey, beagle dog, wistar hannover rat, and balb/c mouse hepatocyle stability was determined.

[2] = Hepatocyte stability, wistar hannover rat; assay type: in vitro ADME; details: 0.5 million cells/ml; for CLint scaled at 2 μM: Wistar Hannover, rat, hepatocytes; for half-life at 2 μM: wistar hannover rat hepatocytes
Description: as §1

[3] = Hepatocyte stability, cynomolgus monkey; assay type: in vitro ADME; details: 0.5 million cells/ml; for half-life at 2 μM: cynomolgus monkey hepatocytes; for CLint scaled at 2 μM: cynomolgus monkey, hepatocytes
Description: as §1

[4] = Mouse pharmacokinetics (oral cassette dosing), plasma; assay type: in vivo; details: female, mouse, BALB/c immunocompetent mice, 5 mg/kg p.o.; for AUC(0-t): read-out: AUC0-t; for Cmax: read-out: Cmax; for Tmax: read-out: Tmax
Description: Female mice (BALC/c) received a single dose (3 mice/treatment) of vehicle (10% 1N HCl:90% [20% […]) and at 0.5, 1, 2, 4, 8, 12 and 24-hour post dose humanely euthanized.
Blood was obtained through cardiac puncture into K+EDTA tubes, mixed by inversion and centrifuged to obtain the plasma. Blood will be kept on ice or at approximately 4° C. prior. Centrifugation will take place within 30 minutes of blood collection affording plasma samples. Plasma samples will be frozen as soon as possible after centrifugation and stored at −80° C. until analysis. All samples will be analysed by means of LC-MS/MS. Method development for bioanalysis will be performed by pharmacokinetics Department of Crown Bioscience (Taicang) Inc. using LC-MS/MS analysis (using Waters HSS T3 2.1×50 mm (1.8 um) LC column, and an API-4000 Electrospray MS unit). The results of a kinetic solubility (free base) study are represented in Table 19.

[5] = Hepatocyte stability, beagle dog; assay type: in vitro ADME; details: 0.5 million cells/ml; for half-life at 2 μM: beagle dog hepatocytes; for CLint scaled at 2 μM: beagle, dog, hepatocytes
Description: as §1

CYP1A2 = molecular target: T1, CYP1A2 (Homo sapiens, UniProt P05177); test: CYP450 panel inhibition in human liver microsomes, 1A2 (phenacetin); details: human, microsomes, pH 7.4
T1 sequence (P05177 1-516): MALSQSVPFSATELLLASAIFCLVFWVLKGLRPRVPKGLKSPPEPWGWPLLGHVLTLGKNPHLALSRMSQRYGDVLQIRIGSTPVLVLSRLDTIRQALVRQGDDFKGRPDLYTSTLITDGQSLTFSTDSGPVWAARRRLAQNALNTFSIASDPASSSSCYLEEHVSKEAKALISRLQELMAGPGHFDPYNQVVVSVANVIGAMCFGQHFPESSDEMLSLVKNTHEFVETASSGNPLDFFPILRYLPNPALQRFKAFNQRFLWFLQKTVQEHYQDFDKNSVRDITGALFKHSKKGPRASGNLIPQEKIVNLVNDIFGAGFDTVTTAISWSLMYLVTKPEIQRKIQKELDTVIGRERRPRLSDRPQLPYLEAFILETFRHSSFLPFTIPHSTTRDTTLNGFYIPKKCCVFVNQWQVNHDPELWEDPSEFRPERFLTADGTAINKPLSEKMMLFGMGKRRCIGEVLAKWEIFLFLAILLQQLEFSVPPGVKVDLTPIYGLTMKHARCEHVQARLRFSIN

[6] = read-out: CLint (L/hr/kg) (converted)

| Structure (SMILES) | Papp at 4 h, 50 μM (PAMPA (pH 7.4); pH = 7.4 (Table 14)) | CLint scaled at 2 μM [1, 6] | CLint scaled at 2 μM ([1]; read-out: CLint (mL/min/kg)) | half-life at 2 μM [1] | CLint scaled at 2 μM [2, 6] | CLint scaled at 2 μM ([2]; read-out: CLint (mL/min/kg)) | half-life at 2 μM [2] | half-life at 2 μM [3] | CLint scaled at 2 μM [3, 6] | CLint scaled at 2 μM ([3]; read-out: CLint (mL/min/kg)) | AUC(0-inf) [4] | half-life [4] | AUC(0-t) [4] | Cmax [4] | Tmax [4] | half-life at 2 μM [5] | CLint scaled at 2 μM [5, 6] | CLint scaled at 2 μM ([5]; read-out: CLint (mL/min/kg)) | inhibition at 30 min, 10 µM (CYP1A2) | Papp at 4 h, 50 μM (PAMPA (pH 7.4); pH = 7.4) |
| --- | --- | --- | --- | --- | --- | --- | --- | --- | --- | --- | --- | --- | --- | --- | --- | --- | --- | --- | --- | --- |
| CCN(C)Cc1c(Cc2cccc(NS(=O)(=O)NC)c2F)c(=O)oc2cc(OC(=O)N(C)C)c(F)cc12 [Compound 238] | 62 ×10⁻⁶ cm/s | 6.57 L/h/kg | 6.6 L/h/kg | 2.48 h | 3.97 L/h/kg | 3.97 L/h/kg | 0.943 h | 0.953 h | 5.89 L/h/kg | 5.89 L/h/kg | 434 ng·h/mL | 1 h | 416 ng·h/mL | 857 ng/mL | 4.98 min | 1.19 h | 6.28 L/h/kg | 6.3 L/h/kg | – | – |
| CCN(C)Cc1c(Cc2cccc(NS(=O)(=O)NC)c2Cl)c(=O)oc2cc(OC(=O)N(C)C)ccc12 [Compound 245, 3-(2-chloro-3-((N-methylsulfamoyl)amino)benzyl)-4-((ethyl(methyl)amino)methyl)-2-oxo-2H-chromen-7-yl dimethylcarbamate] | 53 ×10⁻⁶ cm/s | 7.54 L/h/kg | 7.56 L/h/kg | 2.17 h | 5 L/h/kg | 5 L/h/kg | 0.748 h | 0.407 h | 13.8 L/h/kg | 13.8 L/h/kg | – | – | 154 ng·h/mL | 384 ng/mL | 4.98 min | 0.953 h | 7.81 L/h/kg | 7.8 L/h/kg | -0.3% | – |
| CNS(=O)(=O)Nc1cccc(Cc2c(CN3CCNCC3)c3ccc(OC(=O)N(C)C)cc3oc2=O)c1Cl [Compound 246, 3-(2-chloro-3-((N-methylsulfamoyl)amino)benzyl)-2-oxo-4-(piperazin-1-ylmethyl)-2H-chromen-7-yl dimethylcarbamate hydrochloride] | 2 ×10⁻⁶ cm/s | 3.62 L/h/kg | 3.62 L/h/kg | 4.53 h | 1.25 L/h/kg | 1.25 L/h/kg | 3 h | 6.75 h | 0.832 L/h/kg | 0.834 L/h/kg | – | – | – | – | – | 6.07 h | 1.23 L/h/kg | 1.23 L/h/kg | -3.7% | – |
| CNS(=O)(=O)Nc1cccc(Cc2c(CN(C)C)c3ccc(OC(=O)N(C)C)cc3oc2=O)c1Cl [Compound 274, 3-(2-chloro-3-((N-methylsulfamoyl)amino)benzyl)-4-((dimethylamino)methyl)-2-oxo-2H-chromen-7-yl dimethylcarbamate] | – | 5.23 L/h/kg | 5.23 L/h/kg | 3.13 h | 2.84 L/h/kg | 2.84 L/h/kg | 1.32 h | 0.985 h | 5.7 L/h/kg | 5.69 L/h/kg | 396 ng·h/mL | 0.3 h | 392 ng·h/mL | 796 ng/mL | 4.98 min | 2.12 h | 3.52 L/h/kg | 3.52 L/h/kg | -3.4% | – |
| Cn1cnc2c(F)c(Nc3ccc(Br)cc3Cl)c(C(=O)NOCCO)cc21 [Reference-1, Selumetinib] | – | – | – | – | – | – | – | – | – | – | – | – | – | – | – | – | – | – | – | 29 ×10⁻⁶ cm/s |
| CNS(=O)(=O)Nc1nccc(Cc2c(C)c3ccc(Oc4ncccn4)cc3oc2=O)c1F [Reference-2, reference compound] | – | – | – | – | – | – | – | – | – | – | – | – | – | – | – | – | – | – | – | 29 ×10⁻⁶ cm/s |
